These results are taken from patent US20090209536A1, “AMINOQUINAZOLINE CANNABINOID RECEPTOR MODULATORS FOR TREATMENT OF DISEASE” (KALYPSYS, INC., priority 2007, published 2009).

As usually defined, the EC50 is the midpoint of the concentration-response curve.

Experiment [1] deals with T1, human cannabinoid receptor type 1 (Homo sapiens, UniProt P21554).
T1 construct: purchased Perkin Elmer RBHCB1M; host or cells: HEK 293 EBNA cells
Briefly: Human CB1 Radioligand Binding Assay (basis of selectivity, CB2 vs. CB1). Particulars: CB1: HEK 293 EBNA cells expressing human CB1; CB2: CHO CB2 membranes. Here is the method:
2. Human CB1 Radioligand Binding Assay
The incubation buffer was composed of 50 mM Tris-HCl pH 7.4, 2.5 mM EDTA, 5 mM MgCl2, 5.0 mg/ml fatty acid free BSA and the wash buffer was composed of 50 mM Tris-HCl pH 7.4, 2.5 mM EDTA, 5 mM MgCl2, 0.5 mg/ml fatty acid free BSA.

Experiment [2] concerns the target T2, human cannabinoid receptor type 2 (Homo sapiens, UniProt P34972).
T2 construct: expressed in transfected cells; membrane preparation
Briefly: Human CB2 Radioligand Binding Assay. As to conditions: membranes from stably transfected CHO CB2 cells. In a few lines:
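Filtration competition binding on membranes from CHO cells stably expressing human CB2, with [3H]CP-55,940 at its lot-specific Kd, in 50 mM Tris-HCl pH 7.4, EGTA, MgCl2, 5 mg/ml BSA, 1% DMSO; 90 min at 30° C. Compounds at 10 uM single point or dose-response; bound radioactivity by scintillation, 100 nM CP-55,940 as 100% efficacy.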

The mark [3] stands for this setting: competition with [3H] CP-55,940, read-out: CB2 Ligand Binding Asssay EC50.

The structures appear in SMILES notation. Like-named read-outs stand apart in the source and are kept apart here.

T1 sequence (P21554 whole entry): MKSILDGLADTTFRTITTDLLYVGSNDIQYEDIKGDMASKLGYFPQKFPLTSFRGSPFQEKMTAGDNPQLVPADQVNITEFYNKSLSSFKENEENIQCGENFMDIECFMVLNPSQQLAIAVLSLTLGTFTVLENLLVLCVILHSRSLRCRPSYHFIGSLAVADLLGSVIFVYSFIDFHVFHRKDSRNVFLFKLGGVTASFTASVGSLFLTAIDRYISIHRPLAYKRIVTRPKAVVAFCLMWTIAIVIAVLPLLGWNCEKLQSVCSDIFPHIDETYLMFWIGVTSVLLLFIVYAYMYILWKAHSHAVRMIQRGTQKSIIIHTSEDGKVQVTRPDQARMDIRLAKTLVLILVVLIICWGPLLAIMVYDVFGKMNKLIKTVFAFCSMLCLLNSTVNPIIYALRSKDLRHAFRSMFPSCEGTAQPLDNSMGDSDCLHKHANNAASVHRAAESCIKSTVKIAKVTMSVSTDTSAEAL
T2 sequence (P34972 whole entry): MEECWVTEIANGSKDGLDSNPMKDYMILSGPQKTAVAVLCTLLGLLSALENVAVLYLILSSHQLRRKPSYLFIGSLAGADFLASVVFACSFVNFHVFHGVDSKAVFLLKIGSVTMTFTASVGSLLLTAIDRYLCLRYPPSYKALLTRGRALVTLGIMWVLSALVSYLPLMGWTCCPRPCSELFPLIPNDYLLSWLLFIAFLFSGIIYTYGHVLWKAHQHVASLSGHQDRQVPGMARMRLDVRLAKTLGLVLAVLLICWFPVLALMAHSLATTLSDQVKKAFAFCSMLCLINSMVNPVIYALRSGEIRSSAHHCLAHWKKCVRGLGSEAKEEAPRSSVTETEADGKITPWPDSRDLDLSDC

For `CN(c1ccccc1Cl)c1nc(-c2ccc(C(C)(C)C)cc2)nc2ccccc12` [Example 134, 2-(4-tert-Butylphenyl)quinazolin-4-yl 2-chlorophenyl-N-methylamine], the “Selectivity, CB2 vs. CB1” value in experiment [1] is recorded as “− (− indicates ≦ 10−fold)”. In addition, in experiment [2] (setting [3]), the 50% effective concentration (EC50) is below 1 µM.

For the compound `c1ccc2c(N3CCCCC3)nc(C3CCCC3)nc2c1` [Example 136, 2-Cyclopentyl-4-piperidin-1-ylquinazoline], the “Selectivity, CB2 vs. CB1” value in experiment [1] is “− (− indicates ≦ 10−fold)”. In experiment [2] (setting [3]), the EC50 was above 1 µM.

For `c1ccc2c(N3CCOCC3)nc(C3CCCC3)nc2c1` [Example 137, 2-Cyclopentyl-4-morpholin-4-ylquinazoline], the “Selectivity, CB2 vs. CB1” value in experiment [1] is given as “− (− indicates ≦ 10−fold)”. The EC50 in experiment [2] (setting [3]) is above 1 µM.

On to `CN1CCN(c2nc(C3CCCC3)nc3ccccc23)CC1` [Example 138, 2-Cyclopentyl-4-(4-methylpiperazin-1-yl)quinazoline], for which the “Selectivity, CB2 vs. CB1” value in experiment [1] is recorded as “+ (+ indicates > 10−fold)”. In experiment [2] (setting [3]), the 50% effective concentration (EC50) was below 1 µM.

For the compound `FC(F)(F)Oc1ccc(-c2nc(N3CCCC3)c3ccccc3n2)cc1` [Example 139, 4-Pyrrolidin-1-yl-2-(4-trifluoromethoxyphenyl)quinazoline], in experiment [1], the “Selectivity, CB2 vs. CB1” value was “− (− indicates ≦ 10−fold)”. Also, in experiment [2] (setting [3]), the EC50 was below 1 µM.

For `FC(F)(F)Oc1ccc(-c2nc(N3CCCCC3)c3ccccc3n2)cc1` [Example 140, 4-Piperidin-1-yl-2-(4-trifluoromethoxyphenyl)quinazoline], the “Selectivity, CB2 vs. CB1” value in experiment [1] is recorded as “− (− indicates ≦ 10−fold)”. Also, the 50% effective concentration (EC50) in experiment [2] (setting [3]) was below 1 µM.

As to `FC(F)(F)Oc1ccc(-c2nc(N3CCOCC3)c3ccccc3n2)cc1` [Example 141, 4-Morpholin-4-yl-2-(4-trifluoromethoxyphenyl)quinazoline], the “Selectivity, CB2 vs. CB1” value in experiment [1] was “− (− indicates ≦ 10−fold)”. In addition, the EC50 in experiment [2] (setting [3]) was above 1 µM.

Regarding `CN1CCN(c2nc(-c3ccc(OC(F)(F)F)cc3)nc3ccccc23)CC1` [Example 142, 4-(4-Methylpiperazin-1-yl)-2-(4-trifluoromethoxyphenyl)quinazoline], the “Selectivity, CB2 vs. CB1” value in experiment [1] is reported as “− (− indicates ≦ 10−fold)”. Besides, in experiment [2] (setting [3]), the half-maximal effective concentration (EC50) was below 1 µM.

Regarding `CN(c1ccc(C(C)(C)C)cc1)c1nc(-c2ccc(OC(F)(F)F)cc2)nc2ccccc12` [Example 144, (4-tert-Butylphenyl)methyl-[2-(4-trifluoromethoxyphenyl)quinazolin-4-yl]amine], in experiment [1], the “Selectivity, CB2 vs. CB1” value is “− (− indicates ≦ 10−fold)”. Also, the 50% effective concentration (EC50) in experiment [2] (setting [3]) was above 1 µM.

`CC(C)c1nc(N2CCCC2)c2ccccc2n1` [Example 145, 2-Isopropyl-4-pyrrolidin-1-ylquinazoline]: the “Selectivity, CB2 vs. CB1” value in experiment [1] is reported as “− (− indicates ≦ 10−fold)”. In addition, in experiment [2] (setting [3]), the 50% effective concentration (EC50) is above 1 µM.

For `CC(C)c1nc(N2CCCCC2)c2ccccc2n1` [Example 146, 2-Isopropyl-4-piperidin-1-ylquinazoline], the “Selectivity, CB2 vs. CB1” value in experiment [1] is on record as “− (− indicates ≦ 10−fold)”. For the same compound, the half-maximal effective concentration (EC50) in experiment [2] (setting [3]) is above 1 µM.

Turning to `CC(C)c1nc(N2CCOCC2)c2ccccc2n1` [Example 147, 2-Isopropyl-4-morpholin-4-ylquinazoline], the “Selectivity, CB2 vs. CB1” value in experiment [1] is “− (− indicates ≦ 10−fold)”. For the same compound, in experiment [2] (CB2 Ligand Binding Asssay EC50, competition with [3H] CP-55,940), the 50% effective concentration (EC50) is above 1 µM.

`CC(C)c1nc(N2CCN(C)CC2)c2ccccc2n1` [Example 148, 2-Isopropyl-4-(4-methylpiperazin-1-yl)quinazoline]: the “Selectivity, CB2 vs. CB1” value in experiment [1] is given as “− (− indicates ≦ 10−fold)”. The half-maximal effective concentration (EC50) in experiment [2] (setting [3]) is above 1 µM.

For `Fc1ccccc1-c1nc(N2CCOCC2)c2ccccc2n1` [Example 149, 2-(2-Fluorophenyl)-4-morpholin-4-ylquinazoline], the “Selectivity, CB2 vs. CB1” value in experiment [1] is reported as “− (− indicates ≦ 10−fold)”. Moreover, the EC50 in experiment [2] (setting [3]) was above 1 µM.

As to `Fc1ccccc1-c1nc(N2CCCCC2)c2ccccc2n1` [Example 150, 2-(2-Fluorophenyl)-4-piperidin-1-ylquinazoline], the “Selectivity, CB2 vs. CB1” value in experiment [1] is given as “− (− indicates ≦ 10−fold)”. For the same compound, in experiment [2] (setting [3]), the EC50 was below 1 µM.

`Fc1ccccc1-c1nc(N2CCCC2)c2ccccc2n1` [Example 151, 2-(2-Fluorophenyl)-4-pyrrolidin-1-ylquinazoline]: the “Selectivity, CB2 vs. CB1” value in experiment [1] is on record as “− (− indicates ≦ 10−fold)”. Moreover, the EC50 in experiment [2] (setting [3]) was below 1 µM.

In the case of `CN1CCN(c2nc(-c3ccccc3F)nc3ccccc23)CC1` [Example 152, 2-(2-Fluorophenyl)-4-(4-methylpiperazin-1-yl)quinazoline], in experiment [1], the “Selectivity, CB2 vs. CB1” value is listed as “+ (+ indicates > 10−fold)”. Further, in experiment [2] (setting [3]), the concentration giving a half-maximal response (EC50) is below 1 µM.

Consider `CC(=O)N1CCN(c2nc(-c3ccccc3F)nc3ccccc23)CC1` [Example 153, 1-(4-(2-(2-Fluorophenyl)quinazolin-4-yl)piperazin-1-yl)ethanone], for which, in experiment [1], the “Selectivity, CB2 vs. CB1” value is “+ (+ indicates > 10−fold)”. Further, the concentration for a half-maximal effect (EC50) in experiment [2] (setting [3]) is below 1 µM.

As to `CC(=O)N1CCN(c2nc(-c3cccc(F)c3)nc3ccccc23)CC1` [Example 154, 1-(4-(2-(3-Fluorophenyl)quinazolin-4-yl)piperazin-1-yl)ethanone], the “Selectivity, CB2 vs. CB1” value in experiment [1] is “+ (+ indicates > 10−fold)”. Besides, the concentration for a half-maximal effect (EC50) in experiment [2] (setting [3]) is below 1 µM.

As to `Cc1ccccc1-c1nc(N2CCCC2)c2ccccc2n1` [Example 155, 4-Pyrrolidin-1-yl-2-o-tolylquinazoline], the “Selectivity, CB2 vs. CB1” value in experiment [1] was “− (− indicates ≦ 10−fold)”. The half-maximal effective concentration (EC50) in experiment [2] (setting [3]) is above 1 µM.

With `Cc1ccccc1-c1nc(N2CCOCC2)c2ccccc2n1` [Example 156, 4-Morpholin-4-yl-2-o-tolylquinazoline], the “Selectivity, CB2 vs. CB1” value in experiment [1] is recorded as “− (− indicates ≦ 10−fold)”. For the same compound, in experiment [2] (setting [3]), the EC50 is above 1 µM.

For the compound `Cc1ccccc1-c1nc(N2CCN(C)CC2)c2ccccc2n1` [Example 157, 4-(4-Methylpiperazin-1-yl)-2-o-tolylquinazoline], the “Selectivity, CB2 vs. CB1” value in experiment [1] is “+ (+ indicates > 10−fold)”. Moreover, in experiment [2] (setting [3]), the concentration for a half-maximal effect (EC50) is below 1 µM.

Regarding `COc1ccc2c(N3CCN(C)CC3)nc(C3CCCCC3)nc2c1` [Example 158, 2-Cyclohexyl-7-methoxy-4-(4-methylpiperazin-1-yl)quinazoline], the “Selectivity, CB2 vs. CB1” value in experiment [1] is “− (− indicates ≦ 10−fold)”. Also, the concentration giving a half-maximal response (EC50) in experiment [2] (setting [3]) was above 1 µM.

As to `COc1ccc2c(N3CCCC3)nc(C3CCCCC3)nc2c1` [Example 159, 2-Cyclohexyl-7-methoxy-4-(pyrrolidin-1-yl)quinazoline], the “Selectivity, CB2 vs. CB1” value in experiment [1] is reported as “+ (+ indicates > 10−fold)”. Also, the 50% effective concentration (EC50) in experiment [2] (setting [3]) was above 1 µM.

`Clc1ccc2c(N3CCCC3)nc(C3CCCCC3)nc2c1` [Example 160, 7-Chloro-2-cyclohexyl-4-(pyrrolidin-1-yl)quinazoline]: the “Selectivity, CB2 vs. CB1” value in experiment [1] is “− (− indicates ≦ 10−fold)”. In addition, the 50% effective concentration (EC50) in experiment [2] (setting [3]) is below 1 µM.

`CN1CCN(c2nc(C3CCCCC3)nc3ccc(Cl)cc23)CC1` [Example 161, 6-Chloro-2-cyclohexyl-4-(4-methylpiperazin-1-yl)quinazoline]: the “Selectivity, CB2 vs. CB1” value in experiment [1] was “− (− indicates ≦ 10−fold)”. For the same compound, the EC50 in experiment [2] (setting [3]) was below 1 µM.

For the compound `COc1ccc2nc(C3CCCCC3)nc(N3CCCC3)c2c1` [Example 162, 2-Cyclohexyl-6-methoxy-4-(pyrrolidin-1-yl)quinazoline], in experiment [1], the “Selectivity, CB2 vs. CB1” value is listed as “+ (+ indicates > 10−fold)”. Also, in experiment [2] (setting [3]), the EC50 is below 1 µM.

For `COc1ccc2nc(C3CCCCC3)nc(N3CCN(C)CC3)c2c1` [Example 163, 2-Cyclohexyl-6-methoxy-4-(4-methylpiperazin-1-yl)quinazoline], in experiment [1], the “Selectivity, CB2 vs. CB1” value is reported as “− (− indicates ≦ 10−fold)”. Moreover, in experiment [2] (setting [3]), the EC50 is below 1 µM.
